Laboratory results taken from patent publication US11530181B2, “IL-6 inhibitors and methods of treatment” (University of Florida Research Foundation, Incorporated, priority 2018, dated 2022).

How the values were obtained:
[1] = system: multiple myeloma cell line U266; assay: Cell viability assay, U266; assay type: cell-based, human; settings: for IC50: Homo sapiens, U-266, U266, 72 h; for inhibitory effect compared to parent compound LLM4: U266, 25 μM, 48 and 72 hours
Description: (§1) Cell viability was evaluated by using the MTT assay in triple replicates in one experiment and repeated for three times. Cancer cells were seeded in 96-well plates at a density of 3,000 cells per well. The cells were incubated at 37° C. for a period of 24 hours. Escalating concentrations of IL-6/gp130 inhibitors were added in triplicate to the plates in the presence of 10% FBS. After incubation for 48 or 72 hours, a stock solution of MTT (0.5 mg/ml) was then added to each well containing the treated cells, followed by incubation at 37° C. for 3 h. After removal of medium, the MTT dye was dissolved with spectrophotometric grade DMSO and the absorbance was read at 570 nm. The IC50 value is determined by interpolation based on the absorbance value halfway between positive and negative controls. In the experiment of LLM4 showing higher efficacy in cancer cells with higher levels of IL-6, instead of using medium with 10% FBS, DMEM with 0% FBS was used in order to eliminate the influence of trace amounts of growth factors and cytokines in FBS.
It was reported in multiple myeloma cell line U266 that IL-6 is also elevated and of great importance for cancer progression [Jernberg W, Pettersson M, Carlsson M, et al. Increase in interleukin 6 (IL-6) and IL-6 receptor expression in a human multiple myeloma cell line, U-266, during long-term in vitro culture and the development of a possible autocrine IL-6 loop 1. Leukemia. 1992, 4, 310-318]. These novel IL-6/gp130 inhibitors were tested in U266 cells at a concentration of 25 μM for an incubation time of 48 and 72 hours. MDL16 and LLM4 were used as control compounds.

[2] = system: IL-6 induced STAT3 phosphorylation; assay: Western blot, IL-6 induced STAT3 phosphorylation in MCF7; assay type: cell-based, human
Description: Cells were harvested and lysed in cold radioimmunoprecipitation assay (RIPA) lysis buffer containing proteasome inhibitor cocktail and phosphatase inhibitor cocktail. The protein concentrations were determined using the BCA Protein Assay kit. After adding the loading buffer and boiling at 95° C. for 10 minutes, equivalent amounts of proteins were loaded on and separated by SDS-PAGE, and then were transferred to PVDF membranes. Membranes were probed with primary antibodies (1:1000) against phospho-STAT3 (Tyr705), STAT3, phospho-STAT1 (Tyr701), STAT1, phospho-STAT6 (Tyr 641), STAT6, and GAPDH, respectively, and horseradish peroxidase (HRP)-conjugated secondary antibody (1:10000) (Cell Signaling Technology, Beverly, Mass.). Membranes were analyzed using Enhanced Chemiluminescence Plus reagents and either scanned with the Storm Scanner (Amersham Pharmacia Biotech, Inc., Piscataway, N.J.) or imaged with ChemiDoc MP imaging system (Bio-Rad, Hercules, Calif.). For cytokine induction of STAT3 phosphorylation, MCF-7 breast cancer cells were seeded in 10 cm plates (1 million cells per plate) and allowed to adhere overnight followed by serum-starvation. […] After designated hours, LLM-418 treated and untreated cells were stimulated by IL-6, LIF, and OSM (50 ng/mL). The cells were harvested after 30 minutes and analyzed by Western blot.
MCF7 breast cancer cells were seeded in 10 cm plates (1 million cells per plate) and allowed to adhere overnight. The following day, the cells were serum-starved. The cells were then left untreated or treated with LLM4 (5-20 μM). After designated hours, the LLM4 treated and untreated cells were stimulated by IL-6, LIF, OSM, CNTF, CT-1, IL-11, IL-4 or INF-γ (50 ng/ml). The cells were harvested after 30 minutes and analyzed by western blotting.

[3] = system: BxPC-3 pancreatic cancer cell line; assay: MTT cell viability assay, BxPC-3; assay type: cell-based, human; settings: for inhibitory effect compared to parent compound LLM4: BxPC-3, 25 μM, 48 hours; for IC50: Homo sapiens
Description: (§2) Human breast cancer cell lines MCF7, MDA-MB-231 and SUM159 were maintained in Dulbecco's modified Eagle medium (DMEM). Human pancreatic cancer cell line BxPC-3 was maintained in RPMI 1640 medium. Human pancreatic cancer cell line Capan-1 was maintained in Iscove's Modified Dulbecco's Medium (IMEM). All media were supplemented with 10% FBS and 1% penicillin/streptomycin, and cells were incubated in a humidified 37° C. incubator with 5% CO2. PE/CA-PJ49 cell line was purchased from external sources and maintained according to manufacturer's protocol.
as §1

[4] = system: SUM159 breast cancer cell line; assay: MTT cell viability assay, SUM159; assay type: cell-based, human; settings: for IC50: Homo sapiens; for inhibitory effect compared to parent compound LLM4: SUM159, 25 μM, 48 hours
Description: as §2
as §1, with “controls.” for “controls. In the experiment of LLM4 showing higher efficacy in cancer cells with higher levels of IL-6, instead of using medium with 10% FBS, DMEM with 0% FBS was used in order to eliminate the influence of trace amounts of growth factors and cytokines in FBS.”

PE/CA-PJ49 cell line = assay: Inhibitory activity in PTPRD mutant cell line PE/CA-PJ49; assay type: cell-based; settings: PE/CA-PJ49, 48 h
Description: as §2, §1
Protein tyrosine […] receptor type D (PTPRD) is reported to serve as a tumor suppressor in various human cancers [Peyser et. al, PLoS One (2015) 10(8)]. PTPRD mutation is also known to be associated with increased STAT3 expression [Peyser et. al, PLoS One (2015) 10(8)]. Table 8 captures the inhibitory activities of various compounds in the PTPRD mutant cell line, PE/CA-PJ49.

[5] = MCF7, 1-4 μM, 5 h, IL-6 50 ng/ml

With O=C(Nc1cccc(OCCN2CCCCC2)c1)Nc1cccc(-c2ccn[nH]2)c1 [LLM414, 1-(3-(1H-pyrazol-5-yl)phenyl)-3-(3-(2-(piperidin-1-yl)ethoxy)phenyl)urea] the IC50 [1] was 1900 nM, the “inhibitory effect compared to parent compound LLM4” value [1] was “greater inhibitory effects” and the “inhibition of IL-6 induced STAT3 phosphorylation” value [2, 5] was “inhibited STAT3 phosphorylation stimulated by IL-6 in MCF7 cells in a dose dependent manner”. For the same compound, the “inhibitory effect compared to parent compound LLM4” value [3] was “greater inhibitory effect”, the IC50 ([3]; BXPC-3, 48 h) was 8.3 µM and the IC50 ([3]; BxPC-3, Table 7) was 8.3 µM. For the same compound, the IC50 ([4]; SUM159, 48 h) was 2800 nM, the IC50 ([4]; SUM159, SUM159, Table 7) was 2800 nM and the “inhibitory effect compared to parent compound LLM4” value [4] was “greater inhibitory effect”. It also gave an IC50 (PE/CA-PJ49 cell line) of 3410 ± 990 nM.

For O=C(Nc1ccccc1-c1ccn[nH]1)c1ccc(OCCN2CCCCC2)cc1 [LLM418, N-(2-(1H-pyrazol-5-yl)phenyl)-4-(2-(piperidin-1-yl)ethoxy)benzamide], the IC50 [1] was 1200 nM, the “inhibitory effect compared to parent compound LLM4” value [1] was “greater inhibitory effects” and the “inhibition of IL-6 induced STAT3 phosphorylation” value ([2]; MCF7, 4 μM, 2, 3 and 4 hours) was “inhibit IL-6 induced STAT3 phosphorylation quite effectively”. For the same compound, the “inhibition of IL-6 induced STAT3 phosphorylation” value [2, 5] was “inhibited STAT3 phosphorylation stimulated by IL-6 in MCF7 cells in a dose dependent manner”, the “inhibitory effect compared to parent compound LLM4” value [3] was “greater inhibitory effect” and the IC50 ([3]; BXPC-3, 48 h) was 1.2 µM. For the same compound, the IC50 ([3]; BxPC-3, Table 7) was 1.2 µM, the IC50 ([4]; SUM159, 48 h) was 1700 nM and the IC50 ([4]; SUM159, SUM159, Table 7) was 1700 nM. The “inhibitory effect compared to parent compound LLM4” value [4] was “greater inhibitory effect” and the IC50 (PE/CA-PJ49 cell line) was 1790 ± 480 nM.

With O=C(Nc1cc(F)ccc1-n1cccc1)c1ccc(OCCCN2CCCCC2)cc1 [LLM4, N-(5-fluoro-2-(1H-pyrrol-1-yl)phenyl)-4-(3-(piperidin-1-yl)propoxy)benzamide] the IC50 [1] was 10900 ± 1500 nM, the “inhibition of IL-6 induced STAT3 phosphorylation” value ([2]; MCF7, 15 μM, 2, 3 and 4 hours) was “inhibit IL-6 induced STAT3 phosphorylation quite effectively” and the “inhibition of STAT3 phosphorylation induced by IL-6” value ([2]; MCF7, 20 μM) was “almost complete inhibition”. The “amount of P-STAT3 stimulated by IL-6” value ([2]; MCF7, 5-20 μM, 5 h, IL-6 50 ng/ml, western blot) was “decreased with increasing concentrations”, the “phosphorylation of STAT3 induced by IL-6” value ([2]; MCF7, treatment with 10 LLM4) was “Significant reduction” and the IC50 ([3]; BXPC-3, 48 h) was 10.9 ± 5.7 µM. It also gave an IC50 ([3]; BxPC-3, text b401) of 3.9 µM, an IC50 ([4]; SUM159, 48 h) of 14500 ± 3500 nM and an IC50 ([4]; SUM159, SUM159 human breast cancer cell line, MTT) of 17000 ± 5500 nM.
